Tested on: cancer in situ and cervicitis
Experiment: Effect of Oxytocin on Cancer in Situ and Cervicitis in Humans (Pap smear test)
Assay type: in vivo
Conditions: one patient with cancer in situ and cervicitis; oxytocin 1 mg/ml mixed with 1 ml cellulose gel intravaginally during five consecutive days
Procedure: Patients. 20 women, all aged 60–70 years, with postmenopausal disorders, participated in a double blind cross-over randomised protocol, which means that the patients receive both oxytocin and control treatment without knowing the order of the treatments.
Experimental procedure. The patients were treated with oxytocin 1 mg/ml mixed with 1 ml cellulose gel intravaginally during five consecutive days to relieve the postmenopausal disorders. However, it was discovered that one of the patients suffered from cancer in situ and cervicitis before the oxytocin treatment. This was established by the fact that the patient underwent a Pap smear test before the oxytocin treatment. In this test, cells desquamated from the genital epithelium are obtained by smears, fixed and stained, and examined under the microscope for evidence of pathologic changes. After the oxytocin treatment, the patient also underwent a Pap smear test.

For oxytocin, the “results of the Pap smear tests before and after oxytocin administration” value was “the cancer in situ and cervicitis was removed”.
